Where two headings read alike, the source gives them in different places.
Key:
HLA-A*0301 = HLA-A*0301 (Homo sapiens, UniProt P04439); test: Cell-based HLA class I-peptide concentration-based stability assay (TAP-deficient mono-allelic 721.221 cells); conditions: HLA A*03 mono-allelic TAP-deficient 721.221 cells, relative anti-HLA MFI; for Relative HLA MFI (10 uM): peptide 10 uM; for Relative HLA MFI (100 uM): peptide 100 uM
Method: (§1) Controls without peptide, but the corresponding concentration of DMSO, were performed in parallel.

[1] = tested on: HLA class-I alleles A*0101, A*0201, A*0301, A*2402, B*0702, B*0801, B*1402, B*1501, B*2705, B*3501, B*3901, B*4001, B*4402, B*5201, B*5701, B*5801, B*8101 …; assay type: cell-based, human; conditions: relative anti-HLA MFI; for Relative HLA MFI (10 uM): peptide 10 uM; for Relative HLA MFI (100 uM): peptide 100 uM
HLA-B*5701 [2] = target: T1, HLA-B*5701 (Homo sapiens, UniProt P01889, D201E/D98Y/E176V/E187L/E204Q/E69M/E70A/G107R/I90N/K202T/L105A/L119I/N104I/N87E/Q89R/Q94S/R106L/R155S/R180L/R86G/S101N/S121V/S35A/S48A/T118I/V36M/Y140S/Y91M); test: Cell-based HLA class I-peptide concentration-based stability assay (TAP-deficient mono-allelic 721.221 cells); conditions: for Relative HLA MFI (10 uM) / Relative HLA MFI (100 uM): section B*57, TAP-deficient mono-allelic 721.221 cells, relative anti-HLA MFI; for Relative HLA MFI (10 uM): peptide 10 uM; for Relative HLA MFI (100 uM): peptide 100 uM; for anti-HLA MFI (surface HLA-B*5701): representative (Fig S2B)
Method: as §1

HLA-B*0702 = HLA-B*0702 (Homo sapiens, UniProt P01889); test: as above; conditions: HLA B*07 mono-allelic TAP-deficient 721.221 cells, relative anti-HLA MFI; for Relative HLA MFI (10 uM): peptide 10 uM; for Relative HLA MFI (100 uM): peptide 100 uM
HLA-B*8101 = HLA-B*8101 (Homo sapiens, UniProt P01889, A269T/D138N/E176V/R180L/T167S/W171L); test: as above; conditions: relative anti-HLA MFI; for Relative HLA MFI (10 uM): section B*81, peptide 10 uM; for Relative HLA MFI (100 uM): section B*81, peptide 100 uM
HLA-B*5701 [3] = target: T1, HLA-B*5701; test: Thermal denaturation (differential scanning fluorimetry) of soluble HLA class I-peptide monomers; assay type: binding; conditions: DSF, 2 μM pMHC, SYPRO orange; representative, performed twice as technical triplicates (Fig S4B)
Method: To confirm these observations and further validate the cell-based stability assay, we used an orthogonal approach to evaluate the relationship between HLA class-I-peptide stability and ID by assessing thermal denaturation of soluble HLA class-I-peptide complexes ([Hellman et al., 2016]). In this assay, soluble HLA class-I monomers with bound peptide are incubated in the presence of an environmentally sensitive fluorescent molecule whose fluorescence is enhanced when bound to exposed hydrophobic surfaces during protein unfolding. As a result, the thermal stability (Tm, defined as the temperature at which 50% of the protein is unfolded) of an HLA class-I-peptide complex can be determined by fluorometric measurements during incremental temperature increases, which serve as a proxy for the stabilizing capacity of a bound epitope ([Hellman et al., 2016]).
This relative difference in Tm between ID and SubD epitopes was also observed for HLA-A^∗02 and HLA-B^∗57 (Figure S4) and collectively was statistically significant (Figure 3C).
Expression, refold and purification of the soluble constructs of the pMHCs were performed as previously described ([Pierce et al., 2014]). Briefly, the HLA-A^∗02, HLA-A^∗03 and HLA-B^∗57 heavy chains, and β2-microglobulin were expressed in Escherichia coli and purified as inclusion bodies (IBs). The IBs were solubilized in 8M Urea. Target peptides were provided by the MGH Peptide Core. […]
Differential scanning fluorimetry was performed using a Bio-RAD CFX96 real time PCR system as previously described. Briefly, the excitation and emission wavelengths were set to 587 and 607 nm respectively, and the fluorescence intensity was measured after every 1°C rise in temperature starting from 20°C and going up to 95°C. […] Apparent Tm values were calculated by identifying the point at which the melting transition was 50% complete.

[4] = HLA A*02 mono-allelic TAP-deficient 721.221 cells
[5] = HLA B*08 mono-allelic TAP-deficient 721.221 cells
[6] = HLA B*15 mono-allelic TAP-deficient 721.221 cells
[7] = HLA B*39 mono-allelic TAP-deficient 721.221 cells
[8] = HLA B*35 mono-allelic TAP-deficient 721.221 cells
[9] = HLA B*40 mono-allelic TAP-deficient 721.221 cells
[10] = HLA B*27 mono-allelic TAP-deficient 721.221 cells

Chain of HLA-B*8101 (P01889 25-362 D138N/T167S/W171L/E176V/R180L/A269T limits assumed): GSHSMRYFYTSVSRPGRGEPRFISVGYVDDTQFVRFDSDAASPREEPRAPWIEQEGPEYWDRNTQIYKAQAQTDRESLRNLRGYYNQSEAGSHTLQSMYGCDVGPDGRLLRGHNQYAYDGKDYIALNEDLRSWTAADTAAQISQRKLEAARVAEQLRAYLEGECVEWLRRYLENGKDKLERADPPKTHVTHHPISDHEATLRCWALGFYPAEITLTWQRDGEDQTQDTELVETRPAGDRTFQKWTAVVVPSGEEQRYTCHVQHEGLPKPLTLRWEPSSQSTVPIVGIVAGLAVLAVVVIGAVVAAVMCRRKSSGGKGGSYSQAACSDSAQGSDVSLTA

Sequence | Relative HLA MFI (10 uM) (HLA-B*5701 [2]) | Relative HLA MFI (100 uM) (HLA-B*5701 [2]) | Relative HLA MFI (10 uM) (HLA-B*0702) | Relative HLA MFI (100 uM) (HLA-B*0702) | further results
AIFQSSMTK [ATK9] |  |  |  |  | Relative HLA MFI (10 uM) (HLA-A*0301): 0.3479; Relative HLA MFI (100 uM) (HLA-A*0301): 0.6619
AIIRILQQL [AL9] | 0 | 0.004343 |  |  | Relative HLA MFI (10 uM) [1, 4]: 0.2439; Relative HLA MFI (100 uM) [1, 4]: 0.5341
AVDLSHFLK [ALK9] |  |  |  |  | Relative HLA MFI (10 uM) (HLA-A*0301): 0.274; Relative HLA MFI (100 uM) (HLA-A*0301): 0.7814
AVFIHNFKRK [AK10] |  |  |  |  | Relative HLA MFI (10 uM) (HLA-A*0301): 0.265; Relative HLA MFI (100 uM) (HLA-A*0301): 1
AVRHFPRIW [AW9] | 0.4343 | 0.7818 |  |  | 
ERILSTYLGR [ER10] |  |  |  |  | Relative HLA MFI (10 uM) (HLA-A*0301): 0.09869; Relative HLA MFI (100 uM) (HLA-A*0301): 0.5827
FPRIWLHGL [FL9 (Vpr)] |  |  | 0.2812 | 0.7264 | 
FPRIWLHGL [FL9] |  |  |  |  | Relative HLA MFI (10 uM) (HLA-B*8101): 0.69; Relative HLA MFI (100 uM) (HLA-B*8101): 1
FPVTPQVPL [FL9 (Nef)] |  |  | 0.348 | 0.9848 | 
FPVTPQVPLR [FR10] |  |  | 0.1079 | 0.5897 | 
FSPEVIPMF [FF9] | 0.003257 | 0.02714 |  |  | 
GAFDLSFFL [GL9] |  |  | 0.1155 | 0.2918 | Relative HLA MFI (10 uM) [1, 4]: 0.2773; Relative HLA MFI (100 uM) [1, 4]: 0.6097; Relative HLA MFI (10 uM) [1, 5]: 0.3886; Relative HLA MFI (100 uM) [1, 5]: 0.8634; Relative HLA MFI (10 uM) [1, 6]: 0.06703; Relative HLA MFI (100 uM) [1, 6]: 0.1423; Relative HLA MFI (10 uM) [1, 7]: 0.6524; Relative HLA MFI (100 uM) [1, 7]: 1
HMYISKKAK [HK9] |  |  |  |  | Relative HLA MFI (10 uM) (HLA-A*0301): 0.2644; Relative HLA MFI (100 uM) (HLA-A*0301): 0.8145
HPRVSSEVHI [HI10] |  |  | 0.007599 | 0.6565 | 
HPVHAGPIA [HA9] |  |  | 0.3541 | 0.8359 | Relative HLA MFI (10 uM) [1, 8]: 0.57; Relative HLA MFI (100 uM) [1, 8]: 0.8723
HTQGYFPDWQ [HQ10] | 0.03149 | 0.01629 |  |  | 
IATESIVIW [IAW9] | 0.4853 | 1 |  |  | 
IPRRIRQGL [IL9] |  |  | 0.3754 | 1 | Relative HLA MFI (10 uM) [1, 8]: 0.6542; Relative HLA MFI (100 uM) [1, 8]: 0.68; Relative HLA MFI (10 uM) [1, 9]: 0.518; Relative HLA MFI (100 uM) [1, 9]: 0.8038
ISKKAKGWF [IF9] | 0.4093 | 0.557 |  |  | 

Sequence | Relative HLA MFI (10 uM) (HLA-B*5701 [2]) | Relative HLA MFI (100 uM) (HLA-B*5701 [2]) | Relative HLA MFI (10 uM) (HLA-B*0702) | Relative HLA MFI (100 uM) (HLA-B*0702) | further results
IVLPEKDSW [IW9 (RT)] | 0.4821 | 0.7481 |  |  | 
KAFSPEVI [KI8] | 0.06623 | 0.2215 |  |  | 
KAFSPEVIPMF [KF11] | 0.2215 | 0.5689 |  |  | anti-HLA MFI (surface HLA-B*5701) (HLA-B*5701 [2]; absence of β2m): 426; anti-HLA MFI (surface HLA-B*5701) (HLA-B*5701 [2]; presence of β2m (3 µg/mL)): 565; thermal stability (Tm) of HLA-B*5701-peptide complex (HLA-B*5701 [3]): 57 °C
KAIGTVLV [KV8] | 0.05212 | 0 |  |  | 
KTKPPLPSVKK [KK11] |  |  |  |  | Relative HLA MFI (10 uM) (HLA-A*0301): 0.3455; Relative HLA MFI (100 uM) (HLA-A*0301): 0.9676
LGHGVSIEW [LW9] | 0 | 0.005429 |  |  | 
LRPMTYKAA [LA9] |  |  |  |  | Relative HLA MFI (10 uM) [1, 10]: 0.09012; Relative HLA MFI (100 uM) [1, 10]: 0.09773; Relative HLA MFI (10 uM) (HLA-B*8101): 0.0372; Relative HLA MFI (100 uM) (HLA-B*8101): 0.09141
LTFGWCFKL [LL9] | 0 | 0 |  |  | 
QAVRIIKILY [QY10] | 0 | 0 |  |  | 
RGPGRAFVTI [RI10] |  |  | 0.02584 | 0.4954 | Relative HLA MFI (10 uM) [1, 4]: 0.001172; Relative HLA MFI (100 uM) [1, 4]: 0.4741; Relative HLA MFI (10 uM) [1, 10]: 0.4976; Relative HLA MFI (100 uM) [1, 10]: 0.7237
RIRTWKSLVK [RK10] |  |  |  |  | Relative HLA MFI (10 uM) (HLA-A*0301): 0.3155; Relative HLA MFI (100 uM) (HLA-A*0301): 0.8607
RLRDLLLIVTR [RR11] |  |  |  |  | Relative HLA MFI (10 uM) (HLA-A*0301): 0; Relative HLA MFI (100 uM) (HLA-A*0301): 0.02843
RPAEPVPLQL [RL10] |  |  | 0.196 | 0.848 | 
SPAIFQSSM [SM9] |  |  | 0 | 0.1337 | 
SPRTLNAWV [SV9] |  |  | 0 | 0.114 | 
STTVKAACWW [SW10] | 0.3518 | 0.4995 |  |  | 
TPGPGVRYPL [TL10] |  |  | 0 | 0.1231 | 
TPVNIIGRNML [TL11] |  |  |  |  | Relative HLA MFI (10 uM) (HLA-B*8101): 0.7114; Relative HLA MFI (100 uM) (HLA-B*8101): 0.9995
YTPGPGIRY [YY9] | 0 | 0 |  |  | 
